Values quoted from earlier work in patent US20250043462A1, “INSECT REPELLENT POLYETHYLENE TEREPHTHALATE FIBERS” (The Government of the United States of America, as …, priority 2023, published 2025).

Conditions: commercially available repellent sprays

| SMILES | duration of repellency before reapplication |
| --- | --- |
| CCN(CC)C(=O)c1cccc(C)c1 [DEET, N,N,-diethyl-meta-toluamide] | up to 10 h |
| CCC(C)OC(=O)N1CCCCC1CCO (centres unmarked) [Picaridin, 1-(1-methylpropoxycarbonyl)-2-(2-hydroxyethyl)piperidine] | ≤ 8 h |
